Values belong to the compound of their own block, whether it stands above or below them.
Experiments:
Format in all cases: in vivo
[1] = tested on: HT-29 tumor and MDA-MB-231 tumor; experiment: CA-IX selectivity of [^111In]ITDA1 in cancer-bearing mouse (HT-29 vs MDA-MB-231); details: 24 hours from administration
Experimental: HT-29 cells (5×10^6 cells/mouse) and MDA-MB-231 cells (5×10^6 cells/mouse) were subcutaneously inoculated into the left shoulders of 5-week old male BALB/c nude mice, respectively. A saline solution (100 μL) in which [^111In]ITDA1 (37 kBq) had been dissolved was administered to each of the cancer-bearing mice (n=5) via the tail vein. The mice were slaughtered after the lapse of 24 hours from the administration, and the blood, transplanted tumor, and muscle were recovered from each of the mice. The weight of each organ was measured, and the amount of radioactivity in each organ was measured by using a gamma counter. The accumulation of radioactivity in each organ was expressed by % ID (injected dose)/g obtained by dividing the ratio of the amount of radioactivity of each organ to the administered amount of radioactivity by the organ weight.

[2] = tested on: HT-29 tumor; experiment: SPECT/CT imaging using [^111In]ITDA1; details: HT-29 cancer-bearing mouse, 24 hours from administration
Experimental: HT-29 cells (5×10^6 cells/mouse) and MDA-MB-231 cells (5×10^6 cells/mouse) were subcutaneously inoculated into the left shoulders of 5-week old male BALB/c nude mice, respectively. A saline solution (150 μL) in which [^111In]ITDA1 (23.8 to 26.2 MBq) had been dissolved was administered to each of the cancer-bearing mice via the tail vein. Each of the mice was subjected to SPECT/CT imaging after the lapse of 1, 4, 8, and 24 hours from the administration. U-SPECT-II/CT (single-pinhole collimator 0.6 or 1.0 mm, resolution: 0.45 mm) manufactured by Milab was used as the SPECT/CT device, and data were collected for 60 minutes in 1, 4, 8, and 24 hours from the administration.
The collected data were reconstructed by a three-dimensional ordered-subset expectation maximization (3D-OSEM) method. The results of HT-29 cancer-bearing mouse are shown in FIG. 6A, and the results of MDA-MB-231 cancer-bearing mouse are shown in FIG. 6B.

[3] = tested on: HT-29 tumor; experiment: Biodistribution of [^111In]ITDA2 in HT-29 tumor cancer-bearing mouse; details: HT-29 tumor mouse
Experimental: HT-29 cells (5×10^6 cells/mouse) and MDA-MB-231 cells (1×10^7 cells/mouse) were subcutaneously inoculated into the left shoulders of 5-week old male BALB/c nude mice, respectively, and the mice were used when the tumor diameter reached 6 to 10 mm. A saline solution (100 μL) in which [^111In]ITDA2 (40 kBq) had been dissolved was administered to each of the HT-29 tumor or MDA-MB-231 tumor cancer-bearing mice (n=5) via the tail vein. The HT-29 tumor cancer-bearing mice were slaughtered after the lapse of 1, 4, 8, and 24 hours from the administration, the MDA-MB-231 tumor cancer-bearing mouse was slaughtered after the lapse of 24 hours from the administration, and the blood, spleen, pancreas, stomach, intestines, kidney, liver, heart, lungs, brain, tumor, and muscle were recovered from each of the mice. The weight of each organ was measured, and the amount of radioactivity in each organ was measured by using a gamma counter. The accumulation of radioactivity in each organ except for stomach was expressed by % injected dose/g organ obtained by dividing the ratio of the amount of radioactivity of each organ to the administered amount of radioactivity by the organ weight. The stomach was expressed by % injected dose.

[4] = tested on: MDA-MB-231-transplanted tumor; experiment: Biodistribution of [^111In]ITDA3 in MDA-MB-231 cancer-bearing mouse; details: MDA-MB-231 mouse, 24 hours after administration
Experimental: HT-29 cells and MDA-MB-231 cells (5×10^6 cells/mouse) were subcutaneously inoculated into the left shoulders of 5-week old male BALB/c nude mice, respectively. A saline solution (100 μL) in which[^111In]ITDA3 (40 kBq) had been dissolved was administered to each of the cancer-bearing mice (n=5) via the tail vein. The HT-29 cancer-bearing mice were slaughtered after the lapse of 1, 4, and 24 hours from the administration, the MDA-MB-231 cancer-bearing mouse was slaughtered after the lapse of 24 hours from the administration, and the blood, spleen, pancreas, stomach, intestines, kidney, liver, heart, lungs, brain, HT-29 or MDA-MB-231-transplanted tumor, and muscle were recovered from each of the mice. The weight of each organ was measured, and the amount of radioactivity in each organ was measured by using a gamma counter. The accumulation of radioactivity in each organ except for stomach was expressed by % ID (injected dose)/g obtained by dividing the ratio of the amount of radioactivity of each organ to the administered amount of radioactivity by the organ weight. The stomach was expressed by % ID (injected dose).

- CA-IX selective tumor accumulation [1]: confirmed
- Amount accumulated in the HT-29 tumor vs the MDA-MB-231 tumor ([1]; Welch's t-test, 1% significance level): significant difference was observed
- Accumulation of radioactivity in the transplanted tumor (SPECT/CT) [2]: highly observed
Structure (SMILES): NS(=O)(=O)c1nn2cc(-c3ccc(NC(=O)CN4CCN(CC(=O)O)CCN(CC(=O)O)CCN(CC(=O)O)CC4)cc3)nc2s1.[111In+3] [[^111In]ITDA1, [^111In]indium(III)2,2′,2″-(10-(2-oxo-2-((4-(2-sulfamoylimidazo[2,1-b][1,3,4]thiadiazol-6-yl)phenyl)amino)ethyl)-1,4,7,10-tetraazacyclododecan-1,4,7-triyl) triacetic acid]
- Transplanted tumor/blood ratio, HT-29 vs MDA-MB-231 [1]: significant difference was similarly observed
- Transplanted tumor/muscle ratio, HT-29 vs MDA-MB-231 [1]: significant difference was similarly observed

- Biokinetics: Blood ([3]; 1 hour): 0.27 ± 0.03 % injected dose/g organ
- Biokinetics: Brain ([3]; 1 hour): 0.30 ± 0.04 % injected dose/g organ
- Biokinetics: Heart ([3]; 1 hour): 5.64 ± 1.01 % injected dose/g organ
- Biokinetics: Intestines ([3]; 1 hour): 11.24 ± 1.54 % injected dose/g organ
- Biokinetics: Kidney ([3]; 1 hour): 137 ± 11.1 % injected dose/g organ
- Biokinetics: Liver ([3]; 1 hour): 4.11 ± 0.54 % injected dose/g organ
- Biokinetics: Lungs ([3]; 1 hour): 6.10 ± 0.97 % injected dose/g organ
- Biokinetics: Muscle ([3]; 1 hour): 2.05 ± 0.61 % injected dose/g organ
- Biokinetics: Pancreas ([3]; 1 hour): 20.01 ± 6.77 % injected dose/g organ
- Biokinetics: Spleen ([3]; 1 hour): 0.40 ± 0.27 % injected dose/g organ
- Biokinetics: Stomach ([3]; 1 hour): 3.99 ± 0.49 % injected dose
- Biokinetics: Tumor ([3]; 1 hour): 2.11 ± 0.32 % injected dose/g organ
- Tumor/blood ([3]; 1 hour): 7.78 ± 0.95
- Tumor/muscle ([3]; 1 hour): 1.12 ± 0.45
- Biokinetics: Blood ([3]; 4 hours): 0.18 ± 0.01 % injected dose/g organ
- Biokinetics: Brain ([3]; 4 hours): 0.30 ± 0.04 % injected dose/g organ
- Biokinetics: Heart ([3]; 4 hours): 2.81 ± 0.39 % injected dose/g organ
- Biokinetics: Intestines ([3]; 4 hours): 15.32 ± 1.51 % injected dose/g organ
- Biokinetics: Kidney ([3]; 4 hours): 143 ± 12.0 % injected dose/g organ
- Biokinetics: Liver ([3]; 4 hours): 4.87 ± 1.08 % injected dose/g organ
- Biokinetics: Lungs ([3]; 4 hours): 4.25 ± 0.76 % injected dose/g organ
- Biokinetics: Muscle ([3]; 4 hours): 2.00 ± 0.21 % injected dose/g organ
- Biokinetics: Pancreas ([3]; 4 hours): 20.88 ± 2.49 % injected dose/g organ
- Biokinetics: Spleen ([3]; 4 hours): 0.13 ± 0.10 % injected dose/g organ
- Biokinetics: Stomach ([3]; 4 hours): 5.09 ± 0.66 % injected dose
- Biokinetics: Tumor ([3]; 4 hours): 2.47 ± 0.30 % injected dose/g organ
- Tumor/blood ([3]; 4 hours): 13.85 ± 2.45
- Tumor/muscle ([3]; 4 hours): 1.24 ± 0.19
- Biokinetics: Blood ([3]; 8 hours): 0.20 ± 0.01 % injected dose/g organ
- Biokinetics: Brain ([3]; 8 hours): 0.35 ± 0.05 % injected dose/g organ
- Biokinetics: Heart ([3]; 8 hours): 1.89 ± 0.35 % injected dose/g organ
- Biokinetics: Intestines ([3]; 8 hours): 15.40 ± 0.94 % injected dose/g organ
- Biokinetics: Kidney ([3]; 8 hours): 110 ± 13.7 % injected dose/g organ
- Biokinetics: Liver ([3]; 8 hours): 4.58 ± 0.76 % injected dose/g organ
- Biokinetics: Lungs ([3]; 8 hours): 2.87 ± 1.08 % injected dose/g organ
- Biokinetics: Muscle ([3]; 8 hours): 1.39 ± 0.20 % injected dose/g organ
- Biokinetics: Pancreas ([3]; 8 hours): 13.15 ± 4.17 % injected dose/g organ
- Biokinetics: Spleen ([3]; 8 hours): 0.32 ± 0.20 % injected dose/g organ
- Biokinetics: Stomach ([3]; 8 hours): 6.78 ± 0.95 % injected dose
- Biokinetics: Tumor ([3]; 8 hours): 3.10 ± 0.35 % injected dose/g organ
- Tumor/blood ([3]; 8 hours): 15.31 ± 1.69
- Tumor/muscle ([3]; 8 hours): 2.28 ± 0.39
- Biokinetics: Blood ([3]; 24 hours): 0.26 ± 0.02 % injected dose/g organ
- Biokinetics: Brain ([3]; 24 hours): 0.37 ± 0.09 % injected dose/g organ
- Biokinetics: Heart ([3]; 24 hours): 1.58 ± 0.42 % injected dose/g organ
- Biokinetics: Intestines ([3]; 24 hours): 11.14 ± 2.06 % injected dose/g organ
- Biokinetics: Kidney ([3]; 24 hours): 76.4 ± 17.2 % injected dose/g organ
- Biokinetics: Liver ([3]; 24 hours): 3.50 ± 0.81 % injected dose/g organ
- Biokinetics: Lungs ([3]; 24 hours): 2.15 ± 0.49 % injected dose/g organ
- Biokinetics: Muscle ([3]; 24 hours): 1.00 ± 0.25 % injected dose/g organ
- Biokinetics: Pancreas ([3]; 24 hours): 7.23 ± 1.40 % injected dose/g organ
- Biokinetics: Spleen ([3]; 24 hours): 0.27 ± 0.13 % injected dose/g organ
- Biokinetics: Stomach ([3]; 24 hours): 9.33 ± 0.72 % injected dose
- Biokinetics: Tumor ([3]; 24 hours): 5.93 ± 0.88 % injected dose/g organ
- Tumor/blood ([3]; 24 hours): 22.63 ± 3.31
- Tumor/muscle ([3]; 24 hours): 6.18 ± 1.45
Structure (SMILES): NS(=O)(=O)c1nn2cc(-c3ccc(NC(=O)CN4CCN(CC(=O)O)CCN(CC(=O)Nc5ccc(-c6cn7nc(S(N)(=O)=O)sc7n6)cc5)CCN(CC(=O)O)CC4)cc3)nc2s1.[111In+3] [[^111In]ITDA2, [^111In]indium(III)2,2′-(4,10-bis(2-oxo-2-((4-(2-sulfamoylimidazo[2,1-b][1,3,4]thiadiazol-6-yl)phenyl)amino)ethyl)-1,4,7,10-tetraazacyclododecan-1,7-diyl) diacetic acid]

- Accumulation of radioactivity: Blood [4]: 0.06 ± 0.02 % ID/g
- Accumulation of radioactivity: Brain [4]: 0.24 ± 0.04 % ID/g
- Accumulation of radioactivity: Heart [4]: 1.24 ± 0.19 % ID/g
- Accumulation of radioactivity: Intestines [4]: 6.66 ± 0.86 % ID/g
- Accumulation of radioactivity: Kidney [4]: 49.65 ± 5.04 % ID/g
- Accumulation of radioactivity: Liver [4]: 2.96 ± 0.64 % ID/g
- Accumulation of radioactivity: Lungs [4]: 0.93 ± 0.18 % ID/g
- Accumulation of radioactivity: MDA-MB-231 tumor [4]: 0.72 ± 0.27 % ID/g
- Accumulation of radioactivity: Muscle [4]: 0.99 ± 0.26 % ID/g
- Accumulation of radioactivity: Pancreas [4]: 2.00 ± 0.54 % ID/g
- Accumulation of radioactivity: Spleen [4]: 0.12 ± 0.02 % ID/g
- Accumulation of radioactivity: Stomach [4]: 5.49 ± 0.55 % ID
- Tumor/blood [4]: 11.97 ± 6.08
- Tumor/muscle [4]: 0.77 ± 0.32
Structure (SMILES): NS(=O)(=O)c1nn2cc(-c3ccc(NC(=O)CCC(C(=O)O)N4CCN(CC(=O)[O-])CCN(CC(=O)[O-])CCN(CC(=O)[O-])CC4)cc3)nc2s1.[111In+3] (stereo not drawn) [[^111In]ITDA3]

Reference: US20210322582A1, “RADIOACTIVE IMIDAZOTHIADIAZOLE DERIVATIVE COMPOUND” (Nihon Medi-Physics Co., Ltd., priority 2018, published 2021)
